Reference: US9765018B2, “IDO inhibitors” (BRISTOL-MYERS SQUIBB COMPANY, priority 2013, dated 2017)

Key:
IDO [1] = biological target: T1, IDO (Homo sapiens (Human), UniProt P14902); experiment: Kynurenine assay in IFN-γ-stimulated Hela cells; format: cell-based; settings: 20 h, read-out: Hela Kyurenine (IC50)
How it was run: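 Hela cells adhered 5-6 h, then received inhibitor (top dose 30 μM, 3-fold dilutions to 1.5 nM) plus 100 ng/mL human IFN-γ to induce IDO, 20 h at 37° C. TCA added, 30 min at 50° C hydrolyses N-formylkynurenine to kynurenine. Supernatant mixed with Ehrlich reagent, 10 min RT, absorbance 490 nm.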

IDO [2] = biological target: T1, IDO; experiment: LLE_IDO_ABS_DR (IDO assay, method not described)

T1 sequence (P14902 whole entry): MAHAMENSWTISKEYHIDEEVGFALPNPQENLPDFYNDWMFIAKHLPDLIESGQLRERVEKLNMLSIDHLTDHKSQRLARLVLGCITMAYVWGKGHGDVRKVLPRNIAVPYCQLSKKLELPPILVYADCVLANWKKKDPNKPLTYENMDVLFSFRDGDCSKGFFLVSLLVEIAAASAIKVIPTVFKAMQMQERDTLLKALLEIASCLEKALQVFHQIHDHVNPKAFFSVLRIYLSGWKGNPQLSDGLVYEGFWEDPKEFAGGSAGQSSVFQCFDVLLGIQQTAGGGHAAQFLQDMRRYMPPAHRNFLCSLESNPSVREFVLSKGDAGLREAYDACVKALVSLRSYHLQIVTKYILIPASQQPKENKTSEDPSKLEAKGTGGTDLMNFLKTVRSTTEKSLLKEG

| IC50 (IDO [1]) [nM] | IC50 (IDO [2]) [nM] | SMILES |
| --- | --- | --- |
| 210 | 1190 | COc1ccccc1NC(=O)Nc1cc(-c2ccc(OC)c(C(=O)O)c2)ccc1Oc1ccccc1C(C)(C)C [Example 83, 4′-(2-(tert-butyl)phenoxy)-4-methoxy-3′-(3-(2-methoxyphenyl)ureido)-[1,1′-biphenyl]-3-carboxylic acid] |
| 600 | 2040 | CCCc1ccccc1Oc1ccc(-c2ccc(OC)c(C(=O)O)c2)cc1NC(=O)Nc1cccc(C)c1 [Example 76, 4-methoxy-4′-(2-propylphenoxy)-3′-(3-m-tolylureido)biphenyl-3-carboxylic acid] |
| 850 | 3350 | O=C(Nc1ccc(Cl)cc1)Nc1cc(-c2ccc(C(=O)O)c(Cl)c2)ccc1Oc1ccccc1C(F)(F)F [Example 206, 3-chloro-3′-(3-(4-chlorophenyl)ureido)-4′-(2-(trifluoromethyl)phenoxy)biphenyl-4-carboxylic acid] |
| 310 | 1150 | COc1ccc(-c2ccc(Oc3c(C)cccc3C(C)(C)C)c(NC(=O)Nc3cccc(C)c3)c2)cc1C(=O)O [Example 60, 4′-(2-tert-butyl-6-methylphenoxy)-4-methoxy-3′-(3-m-tolylureido)biphenyl-3-carboxylic acid] |
| 40 | 250 | COc1ccc(-c2ccc(Oc3cccc4ccccc34)c(NC(=O)Nc3ccccc3Cl)c2)cc1C(=O)O [Example 128, 3′-(3-(2-chlorophenyl)ureido)-4-methoxy-4′-(naphthalen-1-yloxy)biphenyl-3-carboxylic acid] |
| 1630 | 3070 | Cc1ccccc1NC(=O)Nc1cc(-c2cccc(Cl)c2C(=O)O)ccc1Oc1ccccc1C(C)(C)C [Example 173, 4′-(2-tert-butylphenoxy)-3-chloro-3′-(3-o-tolylureido)biphenyl-2-carboxylic acid] |
| 170 | 450 | CC(C)(C)c1ccccc1Oc1ccc(-c2ccccc2-c2nnn[nH]2)cc1NC(=O)Nc1ccccc1F [Example 190, 1-(4-(2-tert-butylphenoxy)-2′-(1H-tetrazol-5-yl)biphenyl-3-yl)-3-(2-fluorophenyl)urea] |
| 510 | 2540 | COc1ccc(-c2ccc(Oc3c(C)cccc3C(C)(C)C)c(NC(=O)Nc3ccccc3Cl)c2)cc1C(=O)O [Example 54, 4′-(2-tert-butyl-6-methylphenoxy)-3′-(3-(2-chlorophenyl)ureido)-4-methoxybiphenyl-3-carboxylic acid] |
| 180 | 640 | COc1ccc(-c2ccc(Oc3ccccc3C(C)C)c(NC(=O)Nc3ccccc3C)c2)cc1C(=O)O [Example 64, 4′-(2-isopropylphenoxy)-4-methoxy-3′-(3-o-tolylureido)biphenyl-3-carboxylic acid] |
| 90 | 740 | Cc1ccccc1NC(=O)Nc1cc(-c2ccccc2-c2nnn[nH]2)ccc1Oc1ccccc1C(C)(C)C [Example 181, 1-(4-(2-tert-butylphenoxy)-2′-(1H-tetrazol-5-yl)biphenyl-3-yl)-3-o-tolylurea] |
| 460 | 1320 | COc1ccc(-c2ccc(Oc3ccc4c(c3)CCCC4)c(NC(=O)Nc3cccc(C)c3)c2)cc1C(=O)O [Example 147, 4-methoxy-4′-(5,6,7,8-tetrahydronaphthalen-2-yloxy)-3′-(3-m-tolylureido)biphenyl-3-carboxylic acid] |
| 530 | 2050 | COc1ccc(-c2ccc(Oc3cccc4c3CCCC4=O)c(NC(=O)Nc3ccccc3Cl)c2)cc1C(=O)O [Example 149, 3′-(3-(2-chlorophenyl)ureido)-4-methoxy-4′-(5-oxo-5,6,7,8-tetrahydronaphthalen-1-yloxy)biphenyl-3-carboxylic acid] |
| 3380 | 4810 | COc1ccc(-c2cnc(Oc3cccc4c3CCCC4)c(NC(=O)Nc3ccccc3Cl)c2C)cc1C(=O)O [Example 3, 5-(5-(3-(2-Chlorophenyl)ureido)-4-methyl-6-(5,6,7,8-tetrahydronaphthalen-1-yloxy)pyridin-3-yl)-2-methoxybenzoic acid] |
| 200 | 420 | Cc1ccc(NC(=O)Nc2cc(-c3ccc(C(F)(F)F)cc3C(=O)O)ccc2Oc2ccccc2C(C)(C)C)cc1 [Example 177, 4′-(2-tert-butylphenoxy)-3′-(3-p-tolylureido)-4-(trifluoromethyl)biphenyl-2-carboxylic acid] |
| 520 | 810 | O=C(Nc1ccc(Cl)cc1)Nc1cc(-c2ccccc2-c2nnn[nH]2)cc(CC2CC2)c1OC1CCOCC1 [Example 331] |
| 120 | 480 | COc1ccc(-c2ccc(Oc3cccc4ccccc34)c(NC(=O)Nc3cccc(C)c3)c2)cc1C(=O)O [Example 130, 4-methoxy-4′-(naphthalen-1-yloxy)-3′-(3-m-tolylureido)biphenyl-3-carboxylic acid] |
| 150 | 270 | CC(C)(C)c1ccccc1Oc1ccc(-c2ccccc2-c2nnn[nH]2)cc1NC(=O)Nc1ccccc1 [Example 180, 1-(4-(2-tert-butylphenoxy)-2′-(1H-tetrazol-5-yl)biphenyl-3-yl)-3-phenylurea] |
| 390 | 460 | COc1cc(C(=O)O)c(-c2ccc(Oc3ccccc3C(C)(C)C)c(NC(=O)Nc3ccc(C)cc3)c2)cc1OC [Example 165, 4′-(2-tert-butylphenoxy)-4,5-dimethoxy-3′-(3-p-tolylureido)biphenyl-2-carboxylic acid] |
| 1670 | 3810 | Cc1ccccc1NC(=O)Nc1cc(-c2cc(Cl)ccc2C(=O)O)ccc1Oc1ccccc1C(C)(C)C [Example 167, 4′-(2-tert-butylphenoxy)-5-chloro-3′-(3-o-tolylureido)biphenyl-2-carboxylic acid] |
| 780 | 8150 | Cc1cccc(NC(=O)Nc2cc(-c3ccc(C(=O)O)cc3)ccc2Oc2ccccc2C(C)(C)C)c1 [Example 201, 4′-(2-tert-butylphenoxy)-3′-(3-m-tolylureido) biphenyl-4-carboxylic acid] |
| 150 | 390 | COc1ccc(-c2ccc(Oc3ccccc3C(C)(C)C)c(NC(=O)Nc3cccc(C)c3)c2)cc1C(=O)O [Example 45, 4′-(2-tert-butylphenoxy)-4-methoxy-3′-(3-m-tolylureido)biphenyl-3-carboxylic acid] |
| 240 | 770 | CCc1ccccc1Oc1ccc(-c2ccc(OC)c(C(=O)O)c2)cc1NC(=O)Nc1cccc(Cl)c1 [Example 58, 3′-(3-(3-chlorophenyl)ureido)-4′-(2-ethylphenoxy)-4-methoxybiphenyl-3-carboxylic acid] |
| 370 | 1050 | COc1ccc(-c2ccc(Oc3cccc(C(C)(C)C)c3)c(NC(=O)Nc3cccc(C)c3)c2)cc1C(=O)O [Example 112, 4′-(3-tert-butylphenoxy)-4-methoxy-3′-(3-m-tolylureido)biphenyl-3-carboxylic acid] |
| 660 | 2340 | CC(C)(C)c1ccccc1Oc1ccc(-c2ccc(F)cc2C(=O)O)cc1NC(=O)Nc1ccccc1Cl [Example 169, 4′-(2-tert-butylphenoxy)-3′-(3-(2-chlorophenyl)ureido)-4-fluorobiphenyl-2-carboxylic acid] |
